# Test results as given in paper PMC10434152, “Effectors of the Type VI Secretion System Have the Potential to Be Modified into Antimicrobial Peptides” (Microbiology Spectrum, 2023).
# Where two headings read alike, the source gives them in different places. Residues, ends and D or L forms follow the SMILES beside them.
# Tests used:
# ExPEC RS218 = assay: MIC and MBC against MDR bacteria; format: cell-based, Escherichia coli; conditions: for MBC: Mueller-Hinton agar, 24 h; for MIC: RPMI 1640, 37°C, 18 to 20 h
# Procedure: (§1) MIC was measured according to Luna et al. ([25]) as described previously. Briefly, 100 μL of RPMI 1640 medium containing drugs at various concentrations was cultured with 100 μL of bacteria at 1 × 10^6 CFU/mL in 96-well plates at 37°C for 18 to 20 h. Wells containing 100 μL of bacteria at 1 × 10^6 CFU/mL and 100 μL medium were used as positive controls. Wells containing 100 μL drug and 100 μL medium were used as drug-negative controls, and wells containing 200 μL medium were used as negative controls.
# (§2) The MBC, in which a combination of 10 μL from MIC was put into Mueller-Hinton agar medium and incubated for 24 h, was the first one in which […].
# ExPEC PCN033 = assay: MIC and MBC against MDR bacteria; format: cell-based, Escherichia coli; conditions: for MBC: Mueller-Hinton agar, 24 h; for MIC: RPMI 1640, 37°C, 18 to 20 h
# Procedure: as §1, §2
# E. coli ATCC 25922 = assay: MIC and MBC against laboratory strain E. coli ATCC 25922; format: cell-based, Escherichia coli; conditions: for MBC: 10 μL from MIC put into Mueller-Hinton agar medium, 24 h; for MIC: 37°C, 18 to 20 h
# Procedure: as §1, §2
# S. aureus ATCC 43300 = assay: MIC and MBC against MDR bacteria; format: cell-based; conditions: for MBC: Mueller-Hinton agar, 24 h; for MIC: RPMI 1640, 37°C, 18 to 20 h
# Procedure: as §1, §2
# Bacillus subtilis NCD-2 = assay: MIC and MBC against MDR bacteria; format: cell-based; conditions: for MBC: Mueller-Hinton agar, 24 h; for MIC: RPMI 1640, 37°C, 18 to 20 h
# Procedure: as §1, §2
# S. aureus 1802043 = assay: MIC and MBC against MDR bacteria; format: cell-based; conditions: for MBC: Mueller-Hinton agar, 24 h; for MIC: RPMI 1640, 37°C, 18 to 20 h
# Procedure: as §1, §2
# Streptococcus SC19 = assay: MIC and MBC against MDR bacteria; format: cell-based; conditions: for MBC: Mueller-Hinton agar, 24 h; for MIC: RPMI 1640, 37°C, 18 to 20 h
# Procedure: as §1, §2
# S. aureus USA300 = assay: MIC and MBC against MDR bacteria; format: cell-based; conditions: for MBC: Mueller-Hinton agar, 24 h; for MIC: RPMI 1640, 37°C, 18 to 20 h
# Procedure: as §1, §2
# S. aureus USA200 [1] = assay: MIC and MBC against MDR bacteria; format: cell-based; conditions: for MBC: Mueller-Hinton agar, 24 h
# Procedure: as §1, §2
# S. aureus USA200 [2] = assay: Checkerboard combination with ciprofloxacin; format: cell-based; conditions: in combination with ciprofloxacin
# S. aureus ATCC 25923 = assay: MIC and MBC against laboratory strain S. aureus ATCC 25923; format: cell-based, Staphylococcus aureus; conditions: for MBC: 10 μL from MIC put into Mueller-Hinton agar medium, 24 h; for MIC: 37°C, 18 to 20 h
# Procedure: as §1, §2
# S. aureus USA200 [3] = assay: S. aureus-infected mouse model, survival; format: in vivo; conditions: BALB/c mice, n = 10, 1 × 10^7 bacteria i.p.; 20 mg/kg i.p. 6 h after infection; survival after 7 days
# Procedure: To determine the drug protection rate fraction, S. aureus USA200 that had been cultured overnight was cultured in LB broth to an OD600 of 0.5, washed three times, and resuspended in PBS. Forty female BALB/c mice (18 ± 2 g each) were divided randomly into four groups. All four groups (n = 10) of mice were injected intraperitoneally with 1 × 10^7 bacteria. Six hours after infection, the animals in the four groups received 20 mg/kg Tsap-1, 20 mg/kg ciprofloxacin, 10 mg/kg Tsap-1, and 10 mg/kg ciprofloxacin or an equal amount of PBS by intraperitoneal injection. The survival rate of the mice was recorded after 7 days.
# S. aureus USA200 [4] = assay: Mouse tissue load experiment; format: in vivo; conditions: BALB/c mice, five per group, 20 mg/kg i.p., tissues (liver, spleen, lung, kidney) harvested 12 h later, CFU
# Procedure: For the mouse tissue load experiment, the bacteria were manipulated as described previously. Twenty female BALB/c mice (18 ± 2 g each) were divided randomly into four groups of five mice each. The animals in the four groups were injected intraperitoneally with 20 mg/kg Tsap-1 AMP, 20 mg/kg ciprofloxacin, 10 mg/kg Tsap-1, and 10 mg/kg ciprofloxacin or an equal amount of PBS. Twelve hours later, the mice were anesthetized with ether and perfused with PBS, and their livers, spleens, lungs, and kidneys were harvested. The tissues were then homogenized using a tissue grinder. Then, 10× serial dilutions of the homogenates were prepared and plated onto LB plates, and the CFUs were counted.
# Sheep red blood cells = assay: Hemolytic activity; format: cell-based; conditions: 4 μg/mL; 10% SRBCs, 37°C, 6 h, absorbance 540 nm, triplicate
# Procedure: Sheep red blood cells (SRBCs) were used to detect hemolytic activity according to a previous method. Briefly, fresh SRBCs were washed with PBS, and a suspension of 10% SRBCs was mixed with solutions of Tsap or melittin at various concentrations. After incubation at 37°C for 6 h, the cells were removed by centrifugation at 800 × g for 10 min, and the absorbance of the supernatant at 540 nm was measured. Culture supernatant from cells that had been stimulated with 1% Triton X-100 was used as a positive control, and culture supernatant from cells that had been incubated with PBS was used as a negative control. Each measurement was taken in triplicate.
# [5] = RPMI 1640 medium, 1 × 10^6 CFU/mL, 96-well plates
# [6] = RPMI supplemented with Glycine (0.5 mM)
# [7] = RPMI supplemented with L-Arginine (0.5 mM)
# [8] = RPMI supplemented with L-Histidine (0.5 mM)
# [9] = RPMI supplemented with L-Tryptophan (0.125 mM)
# [10] = RPMI supplemented with Leucine (1 mM)
# [11] = RPMI supplemented with nonessential amino acid solution
# [12] = S. aureus USA200, RPMI 1640, 37°C, 18 to 20 h
Compound,MBC (ExPEC RS218) [µg/mL],MIC (ExPEC RS218) [µg/mL],MBC (ExPEC PCN033) [µg/mL],MIC (ExPEC PCN033) [µg/mL],MBC (E. coli ATCC 25922) [µg/mL],MIC (E. coli ATCC 25922; [5]) [µg/mL],MIC (E. coli ATCC 25922; [6]) [µg/mL],MIC (E. coli ATCC 25922; [7]) [µg/mL],MIC (E. coli ATCC 25922; [8]) [µg/mL],MIC (E. coli ATCC 25922; [9]) [µg/mL],MIC (E. coli ATCC 25922; [10]) [µg/mL],MIC (E. coli ATCC 25922; [11]) [µg/mL],MBC (S. aureus ATCC 43300) [µg/mL],MIC (S. aureus ATCC 43300) [µg/mL],MBC (Bacillus subtilis NCD-2) [µg/mL],MIC (Bacillus subtilis NCD-2) [µg/mL],MBC (S. aureus 1802043) [µg/mL],MIC (S. aureus 1802043) [µg/mL],MBC (Streptococcus SC19) [µg/mL],MIC (Streptococcus SC19) [µg/mL],also measured
CC[C@H](C)[C@H](NC(=O)[C@H](CCSC)NC(=O)[C@H](CCCCN)NC(=O)[C@H](CCCCN)NC(=O)[C@H](CC(C)C)NC(=O)[C@H](CCCCN)NC(=O)[C@H](CCCCN)NC(=O)[C@@H](N)Cc1c[nH]c2ccccc12)C(=O)N[C@@H](CCCCN)C(=O)N[C@@H](CCCCN)C(=O)O [Tsap1] (H-WKKLKKMIKK-OH),32,64,32,64,4,32,16,16,32,32,32,16,4,16,4,16,2,16,4,16,MBC (S. aureus USA300): 2 µg/mL; MIC (S. aureus USA300): 16 µg/mL; MBC (S. aureus USA200 [1]; S. aureus USA200): 8 µg/mL; MIC (S. aureus USA200 [1]; [12]): 64 µg/mL; fractional inhibitory concentration index (FICI) (S. aureus USA200 [2]): 0.5; MBC (S. aureus ATCC 25923): 4 µg/mL; MIC (S. aureus ATCC 25923; [5]): 16 µg/mL; MIC (S. aureus ATCC 25923; [6]): 16 µg/mL; MIC (S. aureus ATCC 25923; [7]): 16 µg/mL; MIC (S. aureus ATCC 25923; [8]): 16 µg/mL; MIC (S. aureus ATCC 25923; [9]): 16 µg/mL; MIC (S. aureus ATCC 25923; [10]): 16 µg/mL; MIC (S. aureus ATCC 25923; [11]): 16 µg/mL
CC[C@H](C)[C@H](NC(=O)[C@H](CCSC)NC(=O)[C@H](CCCCN)NC(=O)[C@H](CCCCN)NC(=O)[C@H](CC(C)C)NC(=O)[C@H](C)NC(=O)[C@H](CCCCN)NC(=O)[C@@H](N)Cc1c[nH]c2ccccc12)C(=O)N[C@@H](CCSC)C(=O)N[C@@H](CCCCN)C(=O)N[C@H](C(=O)O)[C@@H](C)O [Tsap2] (H-WKALKKMIMKT-OH),64,256,64,256,32,128,64,64,128,128,128,64,8,16,8,16,8,16,8,16,MBC (S. aureus USA300): 8 µg/mL; MIC (S. aureus USA300): 16 µg/mL; MBC (S. aureus USA200 [1]; S. aureus USA200): 64 µg/mL; MIC (S. aureus USA200 [1]; [12]): 512 µg/mL; fractional inhibitory concentration index (FICI) (S. aureus USA200 [2]): 1.125; MBC (S. aureus ATCC 25923): 16 µg/mL; MIC (S. aureus ATCC 25923; [5]): 64 µg/mL; MIC (S. aureus ATCC 25923; [6]): 64 µg/mL; MIC (S. aureus ATCC 25923; [7]): 16 µg/mL; MIC (S. aureus ATCC 25923; [8]): 64 µg/mL; MIC (S. aureus ATCC 25923; [9]): 64 µg/mL; MIC (S. aureus ATCC 25923; [10]): 64 µg/mL; MIC (S. aureus ATCC 25923; [11]): 64 µg/mL
CC[C@H](C)[C@H](NC(=O)[C@H](CCCCN)NC(=O)[C@H](CCSC)NC(=O)[C@@H](NC(=O)[C@H](CCSC)NC(=O)[C@H](CCCCN)NC(=O)[C@H](CCCCN)NC(=O)[C@H](CC(C)C)NC(=O)[C@H](C)NC(=O)[C@H](CCCCN)NC(=O)[C@@H](N)Cc1c[nH]c2ccccc12)[C@@H](C)CC)C(=O)O [Tsap3] (H-WKALKKMIMKI-OH),32,64,32,64,4,32,16,16,32,32,32,16,4,16,4,16,2,16,4,16,MBC (S. aureus USA300): 2 µg/mL; MIC (S. aureus USA300): 16 µg/mL; MBC (S. aureus USA200 [1]; S. aureus USA200): 16 µg/mL; MIC (S. aureus USA200 [1]; [12]): 64 µg/mL; fractional inhibitory concentration index (FICI) (S. aureus USA200 [2]): 1.25; MBC (S. aureus ATCC 25923): 8 µg/mL; MIC (S. aureus ATCC 25923; [5]): 16 µg/mL; MIC (S. aureus ATCC 25923; [6]): 16 µg/mL; MIC (S. aureus ATCC 25923; [7]): 16 µg/mL; MIC (S. aureus ATCC 25923; [8]): 16 µg/mL; MIC (S. aureus ATCC 25923; [9]): 16 µg/mL; MIC (S. aureus ATCC 25923; [10]): 16 µg/mL; MIC (S. aureus ATCC 25923; [11]): 16 µg/mL
O=C(O)c1cn(C2CC2)c2cc(N3CCNCC3)c(F)cc2c1=O [ciprofloxacin],,,,,,,,,,,,,,,,,,,,,"MIC (S. aureus USA200 [1]; Staphylococcus aureus, S. aureus USA200, stated in text, read-out: MIC): 16 µg/mL; protection (S. aureus USA200 [3]): 60%; reduction of bacterial loads in all tissues compared with untreated group (S. aureus USA200 [4]): about 32 times"
melittin,,,,,,,,,,,,,,,,,,,,,hemolysis activity (Sheep red blood cells): complete hemolysis activity
